Measurements published in the supplement of paper PMC6045584.

What follows are test systems tested with COCC[n+]1c2c(n(Cc3cnccn3)c1C)C(=O)c1ccccc1C2=O [YM155] (assay: area under dose-response curve of surviving fraction (unscaled, Aref=0) (surviving fraction x log10(nM)); higher = more resistant). Settings: exposure time: 5 days; dose range 0.5-1000 nM.
Outline: (§1)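 Inhibitor was applied to tumour cell lines at eight concentrations (0.5 to 1000 nM) for five days in 384-well plates. Luminescence from CellTiter-Glo, scaled to DMSO-only wells, gave surviving fractions in three screens per line, and these were fitted by 3-parameter logistic regression with the drc R package. The area under the curve is an unscaled activity area. Aref was 0, and dose was on a log10 scale.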
With NOS1 BONE the “area under dose-response curve” value was 1.08.
With BT549 BREAST the “area under dose-response curve” value was 1.74.
For HT1080 SOFT TISSUE, the “area under dose-response curve” value was 1.04.
For MDAMB157 BREAST, the “area under dose-response curve” value was 1.53.
In the case of SIHA CERVIX, the “area under dose-response curve” value is reported as 1.48.
For SG32 HEADNECK, the “area under dose-response curve” value was 0.928.
For CCK81 LARGE INTESTINE, the “area under dose-response curve” value was 2.51.
For SG31 HEADNECK, the “area under dose-response curve” value was 1.96.
In the case of VP229 BREAST, the “area under dose-response curve” value is reported as 1.79.
In the case of RDES SOFT TISSUE, the “area under dose-response curve” value is reported as 1.4.
LM7 BONE was tested, and the “area under dose-response curve” value was 0.956.
HMT3552 BREAST was tested, and the “area under dose-response curve” value was 1.94.
In the case of SNU475 LIVER, the “area under dose-response curve” value is reported as 1.91.
ASKA SYNOVIAL was tested, and the “area under dose-response curve” value was 1.57.
In the case of CADOES1 SOFT TISSUE, the “area under dose-response curve” value is reported as 3.1.
In the case of BT20 BREAST, the “area under dose-response curve” value is reported as 0.651.
For SUM44 BREAST, the “area under dose-response curve” value was 2.05.
CHLA90 AUTONOMIC GANGLIA was tested, and the “area under dose-response curve” value was 1.31.
With HCC78 LUNG the “area under dose-response curve” value was 0.851.
With MFM223 BREAST the “area under dose-response curve” value was 0.996.
For SG27 HEADNECK, the “area under dose-response curve” value was 1.43.
ZR751 BREAST was tested, and the “area under dose-response curve” value was 1.2.
MG63 BONE was tested, and the “area under dose-response curve” value was 1.43.
SUM159 BREAST was tested, and the “area under dose-response curve” value was 1.25.
MDAMB453 BREAST was tested, and the “area under dose-response curve” value was 1.04.
In the case of HMLE3 BREAST, the “area under dose-response curve” value is reported as 1.02.
With HCC70 BREAST the “area under dose-response curve” value was 2.27.
For VCAP PROSTATE, the “area under dose-response curve” value was 0.945.

The test systems below were run with COc1cc2ncnc(Nc3ccc(F)c(Cl)c3)c2cc1OCCCN1CCOCC1 [GEFITINIB] in the same assay as above. Settings: exposure time: 5 days; dose range 0.5-1000 nM.
Outline: as §1
For “JURKAT HAEMATOPOIETIC AND LYMPHOID TISSUE”, the “area under dose-response curve” value was 3.46.
YAMATO SYNOVIAL was tested, and the “area under dose-response curve” value was 4.25.
With SCC003 HEADNECK the “area under dose-response curve” value was 2.89.
BT549 BREAST was tested, and the “area under dose-response curve” value was 3.57.
For MDAMB157 BREAST, the “area under dose-response curve” value was 3.2.
SIHA CERVIX was tested, and the “area under dose-response curve” value was 3.44.
SG32 HEADNECK was tested, and the “area under dose-response curve” value was 4.01.
In the case of CCK81 LARGE INTESTINE, the “area under dose-response curve” value is reported as 1.85.
With VP229 BREAST the “area under dose-response curve” value was 2.63.
For RDES SOFT TISSUE, the “area under dose-response curve” value was 3.69.
With LM7 BONE the “area under dose-response curve” value was 3.49.
HMT3552 BREAST was tested, and the “area under dose-response curve” value was 3.14.
For ASKA SYNOVIAL, the “area under dose-response curve” value was 3.71.
For CADOES1 SOFT TISSUE, the “area under dose-response curve” value was 3.02.
BT20 BREAST was tested, and the “area under dose-response curve” value was 3.62.
SUM44 BREAST was tested, and the “area under dose-response curve” value was 4.14.
CHLA90 AUTONOMIC GANGLIA was tested, and the “area under dose-response curve” value was 2.9.
MFM223 BREAST was tested, and the “area under dose-response curve” value was 3.88.
For SG27 HEADNECK, the “area under dose-response curve” value was 3.65.
For MG63 BONE, the “area under dose-response curve” value was 3.47.
For SUM159 BREAST, the “area under dose-response curve” value was 3.52.
For VCAP PROSTATE, the “area under dose-response curve” value was 3.75.

These test systems were tested with C[C@]1(O)C[C@@H](c2nc(-c3ccc4ccc(-c5ccccc5)nc4c3)c3c(N)nccn32)C1 [OSI-906] in the same assay as above. Settings: exposure time: 5 days; dose range 0.5-1000 nM.
Outline: as §1
With “JURKAT HAEMATOPOIETIC AND LYMPHOID TISSUE” the “area under dose-response curve” value was 3.25.
With SCC003 HEADNECK the “area under dose-response curve” value was 3.08.
NOS1 BONE was tested, and the “area under dose-response curve” value was 2.83.
For BT549 BREAST, the “area under dose-response curve” value was 3.07.
HT1080 SOFT TISSUE was tested, and the “area under dose-response curve” value was 3.17.
With MDAMB157 BREAST the “area under dose-response curve” value was 2.98.
For SIHA CERVIX, the “area under dose-response curve” value was 3.17.
For SG32 HEADNECK, the “area under dose-response curve” value was 2.28.
For CCK81 LARGE INTESTINE, the “area under dose-response curve” value was 2.3.
For SG31 HEADNECK, the “area under dose-response curve” value was 2.94.
In the case of VP229 BREAST, the “area under dose-response curve” value is reported as 2.77.
RDES SOFT TISSUE was tested, and the “area under dose-response curve” value was 2.76.
LM7 BONE was tested, and the “area under dose-response curve” value was 2.32.
For HMT3552 BREAST, the “area under dose-response curve” value was 3.17.
SNU475 LIVER was tested, and the “area under dose-response curve” value was 3.01.
For ASKA SYNOVIAL, the “area under dose-response curve” value was 3.41.
In the case of CADOES1 SOFT TISSUE, the “area under dose-response curve” value is reported as 3.12.
In the case of BT20 BREAST, the “area under dose-response curve” value is reported as 2.91.
For CHLA90 AUTONOMIC GANGLIA, the “area under dose-response curve” value was 2.73.
In the case of HCC78 LUNG, the “area under dose-response curve” value is reported as 2.75.
With MFM223 BREAST the “area under dose-response curve” value was 2.94.
In the case of ZR751 BREAST, the “area under dose-response curve” value is reported as 2.62.
For MG63 BONE, the “area under dose-response curve” value was 3.11.
SUM159 BREAST was tested, and the “area under dose-response curve” value was 3.15.
With HMLE3 BREAST the “area under dose-response curve” value was 2.79.
For HCC70 BREAST, the “area under dose-response curve” value was 3.29.
With VCAP PROSTATE the “area under dose-response curve” value was 2.78.

Each test system was assayed with Cc1ccc(-c2cc(C(F)(F)F)nn2-c2ccc(S(N)(=O)=O)cc2)cc1 [CELECOXIB] in the same assay as above. Settings: exposure time: 5 days; dose range 0.5-1000 nM.
Outline: as §1
For “JURKAT HAEMATOPOIETIC AND LYMPHOID TISSUE”, the “area under dose-response curve” value was 3.37.
For SJSA1 BONE, the “area under dose-response curve” value was 5.36.
For YAMATO SYNOVIAL, the “area under dose-response curve” value was 4.62.
In the case of SCC003 HEADNECK, the “area under dose-response curve” value is reported as 3.59.
NOS1 BONE was tested, and the “area under dose-response curve” value was 3.88.
For BT549 BREAST, the “area under dose-response curve” value was 3.78.
SIHA CERVIX was tested, and the “area under dose-response curve” value was 3.52.
For SG32 HEADNECK, the “area under dose-response curve” value was 4.18.
For CCK81 LARGE INTESTINE, the “area under dose-response curve” value was 2.59.
For SG31 HEADNECK, the “area under dose-response curve” value was 4.19.
For VP229 BREAST, the “area under dose-response curve” value was 4.03.
In the case of RDES SOFT TISSUE, the “area under dose-response curve” value is reported as 3.85.
For LM7 BONE, the “area under dose-response curve” value was 3.39.
For HMT3552 BREAST, the “area under dose-response curve” value was 3.77.
With SNU475 LIVER the “area under dose-response curve” value was 3.49.
In the case of ASKA SYNOVIAL, the “area under dose-response curve” value is reported as 3.87.
In the case of CADOES1 SOFT TISSUE, the “area under dose-response curve” value is reported as 2.95.
BT20 BREAST was tested, and the “area under dose-response curve” value was 3.78.
With SUM44 BREAST the “area under dose-response curve” value was 4.41.
In the case of CHLA90 AUTONOMIC GANGLIA, the “area under dose-response curve” value is reported as 3.34.
For HCC78 LUNG, the “area under dose-response curve” value was 3.06.
With SG27 HEADNECK the “area under dose-response curve” value was 3.88.
In the case of ZR751 BREAST, the “area under dose-response curve” value is reported as 3.57.
In the case of MG63 BONE, the “area under dose-response curve” value is reported as 3.57.
In the case of SUM159 BREAST, the “area under dose-response curve” value is reported as 3.58.
For MDAMB453 BREAST, the “area under dose-response curve” value was 3.64.
In the case of HMLE3 BREAST, the “area under dose-response curve” value is reported as 3.53.
For HCC70 BREAST, the “area under dose-response curve” value was 3.62.

Each test system was assayed with O=C(O)C1(C(=O)O)CCC1.[NH2-].[NH2-].[Pt+2] [CARBOPLATIN] in the same assay as above. Settings: exposure time: 5 days; dose range 0.5-1000 nM.
Outline: as §1
“JURKAT HAEMATOPOIETIC AND LYMPHOID TISSUE” was tested, and the “area under dose-response curve” value was 3.39.
With SJSA1 BONE the “area under dose-response curve” value was 4.73.
In the case of YAMATO SYNOVIAL, the “area under dose-response curve” value is reported as 4.26.
With NOS1 BONE the “area under dose-response curve” value was 3.95.
For BT549 BREAST, the “area under dose-response curve” value was 3.61.
HT1080 SOFT TISSUE was tested, and the “area under dose-response curve” value was 3.51.
For SIHA CERVIX, the “area under dose-response curve” value was 3.82.
With SG32 HEADNECK the “area under dose-response curve” value was 3.86.
CCK81 LARGE INTESTINE was tested, and the “area under dose-response curve” value was 2.67.
With SG31 HEADNECK the “area under dose-response curve” value was 3.73.
VP229 BREAST was tested, and the “area under dose-response curve” value was 3.55.
RDES SOFT TISSUE was tested, and the “area under dose-response curve” value was 3.72.
For SNU475 LIVER, the “area under dose-response curve” value was 3.44.
ASKA SYNOVIAL was tested, and the “area under dose-response curve” value was 3.72.
SUM44 BREAST was tested, and the “area under dose-response curve” value was 3.73.
In the case of HCC78 LUNG, the “area under dose-response curve” value is reported as 3.35.
With MFM223 BREAST the “area under dose-response curve” value was 3.74.
For SG27 HEADNECK, the “area under dose-response curve” value was 3.6.
ZR751 BREAST was tested, and the “area under dose-response curve” value was 3.96.
For MDAMB453 BREAST, the “area under dose-response curve” value was 3.54.
For HCC70 BREAST, the “area under dose-response curve” value was 3.56.
VCAP PROSTATE was tested, and the “area under dose-response curve” value was 3.55.
